Reference: PubChem BioAssay (NCI)
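Test compounds were applied to cells in 96-well plates for 48 hours at 5 doses. The concentration for full growth arrest is given as TGI.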

Legend:
Experiment in all cases: DTP human tumour cell line panel, 48 h
[1] = tested on: 786-0 renal
[2] = tested on: A498 renal
[3] = tested on: A549 NSCLC
[4] = tested on: ACHN renal
[5] = tested on: CAKI-1 renal
[6] = tested on: CCRF-CEM leukemia
[7] = tested on: COLO 205 colon
[8] = tested on: DU-145 prostate
[9] = tested on: HCT-116 colon
[10] = tested on: HCT-15 colon
[11] = tested on: HL-60(TB) leukemia
[12] = tested on: HOP-62 NSCLC
[13] = tested on: HS 578T breast
[14] = tested on: HT29 colon
[15] = tested on: IGROV1 ovarian
[16] = tested on: K-562 leukemia
[17] = tested on: KM12 colon
[18] = tested on: LOX IMVI melanoma
[19] = tested on: M14 melanoma
[20] = tested on: MCF7 breast
[21] = tested on: MDA-MB-231 breast
[22] = tested on: MDA-MB-435
[23] = tested on: MDA-N
[24] = tested on: MOLT-4 leukemia
[25] = tested on: NCI-H226 lung
[26] = tested on: NCI-H23 lung
[27] = tested on: NCI-H460 lung
[28] = tested on: NCI-H522 lung
[29] = tested on: NCI/ADR-RES ovarian
[30] = tested on: OVCAR-3 ovarian
[31] = tested on: OVCAR-5 ovarian
[32] = tested on: OVCAR-8 ovarian
[33] = tested on: PC-3 prostate
[34] = tested on: RPMI-8226 leukemia
[35] = tested on: SF-268 CNS
[36] = tested on: SF-295 CNS
[37] = tested on: SF-539 CNS
[38] = tested on: SK-MEL-2 melanoma
[39] = tested on: SK-MEL-5 melanoma
[40] = tested on: SK-OV-3 ovarian
[41] = tested on: SN12C renal
[42] = tested on: SNB-19 CNS
[43] = tested on: SR leukemia
[44] = tested on: SW-620 colon
[45] = tested on: T-47D breast
[46] = tested on: U251 CNS
[47] = tested on: UACC-257 melanoma
[48] = tested on: UACC-62 melanoma
[49] = tested on: UO-31 renal
[50] = tested on: EKVX NSCLC
[51] = tested on: HCC-2998 colon
[52] = tested on: HOP-92 NSCLC
[53] = tested on: MALME-3M melanoma
[54] = tested on: OVCAR-4 ovarian
[55] = tested on: RXF 393 renal
[56] = tested on: SK-MEL-28 melanoma
[57] = tested on: SNB-75 CNS
[58] = tested on: TK-10 renal

`CC/C=C/C(CC)C/C(C)=C\[C@]1(CC)C[C@H](CC)[C@H](CC(=O)O)OO1` (stereo not given in full) showed a TGI [1] of 2.61 µM, a TGI [2] of 3.07 µM and a TGI [3] of 0.281 µM. The TGI [4] was 0.641 µM, the TGI [5] was 0.967 µM and the TGI [6] was 0.41 µM. For the same molecule, the TGI [7] was 2.72 µM, the TGI [8] was 1.64 µM and the TGI [9] was 1.43 µM. The TGI [10] was 1.62 µM, the TGI [11] was 2.27 µM and the TGI [12] was 2.2 µM. The TGI [13] was 5.31 µM, the TGI [14] was 1.83 µM and the TGI [15] was 0.208 µM. For the same molecule, the TGI [16] was 1.48 µM, the TGI [17] was 0.235 µM and the TGI [18] was 0.129 µM. It also gave a TGI [19] of 3.6 µM, a TGI [20] of 3.58 µM and a TGI [21] of 3.31 µM. It also gave a TGI [22] of 2.8 µM, a TGI [23] of 2.71 µM and a TGI [24] of 0.494 µM. For the same molecule, the TGI [25] was 4.58 µM, the TGI [26] was 3.05 µM and the TGI [27] was 0.36 µM. The TGI [28] was 0.331 µM, the TGI [29] was 1.84 µM and the TGI [30] was 2.48 µM. For the same molecule, the TGI [31] was 2.64 µM, the TGI [32] was 3.23 µM and the TGI [33] was 1.24 µM. The TGI [34] was 0.395 µM, the TGI [35] was 2.9 µM and the TGI [36] was 1.19 µM. It also gave a TGI [37] of 2.93 µM, a TGI [38] of 3.22 µM and a TGI [39] of 2.54 µM. For the same molecule, the TGI [40] was 3.3 µM, the TGI [41] was 3.05 µM and the TGI [42] was 3.34 µM. It also gave a TGI [43] of 0.287 µM, a TGI [44] of 1.42 µM and a TGI [45] of 2.99 µM. It also gave a TGI [46] of 1.79 µM, a TGI [47] of 11.1 µM and a TGI [48] of 3.07 µM. For the same molecule, the TGI [49] was 0.0368 µM.

`O=C(NC(O)(C(F)(F)F)C(F)(F)F)c1ccccc1` gave a TGI [1] greater than 100 µM, a TGI [2] greater than 100 µM and a TGI [3] greater than 100 µM. It also gave a TGI [4] greater than 100 µM, a TGI [5] greater than 100 µM and a TGI [6] greater than 100 µM. For the same molecule, the TGI [7] was greater than 100 µM, the TGI [8] was greater than 100 µM and the TGI [50] was greater than 100 µM. For the same molecule, the TGI [51] was greater than 100 µM, the TGI [9] was greater than 100 µM and the TGI [10] was greater than 100 µM. For the same molecule, the TGI [11] was greater than 100 µM, the TGI [12] was greater than 100 µM and the TGI [52] was greater than 100 µM. The TGI [13] was greater than 100 µM, the TGI [14] was greater than 100 µM and the TGI [15] was greater than 100 µM. The TGI [16] was greater than 100 µM, the TGI [17] was greater than 100 µM and the TGI [18] was greater than 100 µM. For the same molecule, the TGI [19] was greater than 100 µM, the TGI [53] was greater than 100 µM and the TGI [20] was greater than 100 µM. For the same molecule, the TGI [21] was greater than 100 µM, the TGI [22] was greater than 100 µM and the TGI [23] was greater than 100 µM. For the same molecule, the TGI [24] was greater than 100 µM, the TGI [25] was greater than 100 µM and the TGI [26] was greater than 100 µM. The TGI [27] was greater than 100 µM, the TGI [28] was greater than 100 µM and the TGI [29] was greater than 100 µM. The TGI [30] was greater than 100 µM, the TGI [54] was greater than 100 µM and the TGI [31] was greater than 100 µM. It also gave a TGI [32] greater than 100 µM, a TGI [33] greater than 100 µM and a TGI [34] greater than 100 µM. The TGI [55] was greater than 100 µM, the TGI [35] was greater than 100 µM and the TGI [36] was greater than 100 µM. For the same molecule, the TGI [37] was greater than 100 µM, the TGI [38] was greater than 100 µM and the TGI [56] was greater than 100 µM. The TGI [39] was greater than 100 µM, the TGI [40] was greater than 100 µM and the TGI [41] was greater than 100 µM. It also gave a TGI [42] greater than 100 µM, a TGI [57] greater than 100 µM and a TGI [43] greater than 100 µM. The TGI [44] was greater than 100 µM, the TGI [45] was greater than 100 µM and the TGI [58] was greater than 100 µM. The TGI [46] was greater than 100 µM, the TGI [47] was greater than 100 µM and the TGI [49] was greater than 100 µM.

Molecule `COc1cc2nn(-c3ccccc3)nc2c2nonc12` has a TGI [1] greater than 100 µM, a TGI [2] greater than 100 µM and a TGI [3] greater than 100 µM. The TGI [4] was greater than 100 µM, the TGI [5] was greater than 100 µM and the TGI [6] was greater than 100 µM. The TGI [7] was greater than 100 µM, the TGI [8] was greater than 100 µM and the TGI [50] was greater than 100 µM. For the same molecule, the TGI [51] was greater than 100 µM, the TGI [9] was greater than 100 µM and the TGI [10] was greater than 100 µM. The TGI [11] was greater than 100 µM, the TGI [12] was greater than 100 µM and the TGI [13] was greater than 100 µM. It also gave a TGI [14] greater than 100 µM, a TGI [15] greater than 100 µM and a TGI [16] greater than 100 µM. It also gave a TGI [17] greater than 100 µM, a TGI [18] greater than 100 µM and a TGI [19] greater than 100 µM. For the same molecule, the TGI [53] was greater than 100 µM, the TGI [21] was greater than 100 µM and the TGI [22] was greater than 100 µM. It also gave a TGI [23] greater than 100 µM, a TGI [24] greater than 100 µM and a TGI [25] greater than 100 µM. It also gave a TGI [26] greater than 100 µM, a TGI [27] greater than 100 µM and a TGI [28] greater than 100 µM. For the same molecule, the TGI [29] was greater than 100 µM, the TGI [30] was greater than 100 µM and the TGI [54] was greater than 100 µM. For the same molecule, the TGI [31] was greater than 100 µM, the TGI [33] was greater than 100 µM and the TGI [34] was greater than 100 µM. The TGI [55] was greater than 100 µM, the TGI [35] was greater than 100 µM and the TGI [36] was greater than 100 µM. For the same molecule, the TGI [37] was greater than 100 µM, the TGI [38] was greater than 100 µM and the TGI [56] was greater than 100 µM. It also gave a TGI [39] greater than 100 µM, a TGI [40] greater than 100 µM and a TGI [41] greater than 100 µM. The TGI [42] was greater than 100 µM, the TGI [57] was greater than 100 µM and the TGI [43] was greater than 100 µM. For the same molecule, the TGI [44] was greater than 100 µM, the TGI [45] was greater than 100 µM and the TGI [58] was greater than 100 µM. For the same molecule, the TGI [47] was greater than 100 µM, the TGI [48] was greater than 100 µM and the TGI [49] was greater than 100 µM.
